Our source for the Activity and IC50 values is ChEMBL document CHEMBL4359863, “Structure-guided development of purine amide, hydroxamate, and amidoxime for the inhibition of non-small cell lung cancer” (Eur J Med Chem, 2019).

Structures are written as SMILES. Activity calls are given as the source filed them. No cut-off for these calls is given here.

For assay [1], the target named is T1, Tubulin (Homo sapiens) (UniProt P68371+Q9H4B7+P0DPH7+P68366+Q13509+Q71U36+P04350+Q3ZCM7+P07437+P68363+Q9BQE3+Q6PEY2+Q13885+Q9BVA1+Q9BUF5). Nature of the assay: Induction of microtubule fragmentation in human NCI-H1975 cells at 50 nM incubated for 12 hrs by DAPI staining based laser confocal microscopic method. The assay is classed as cell-based.
Assay [2] has as its target T1, Tubulin (Homo sapiens). Kind of assay: Induction of microtubule fragmentation in human NCI-H1975 cells at 30 nM incubated for 12 hrs by DAPI staining based laser confocal microscopic method. The assay is classed as cell-based.
In assay [3] the target is Katanin p60 ATPase-containing subunit A1 (Homo sapiens) (UniProt O75449). Nature of the assay: Binding affinity to katanin p60 in human NCI-H1975 cells using biotin labelled compound incubated for 16 hrs by streptavidin based immunoprecipitation method. Type of assay: cell-based.
Sequence of Katanin p60 ATPase-containing subunit A1 (Homo sapiens) (O75449 whole entry, the tested form may be a part): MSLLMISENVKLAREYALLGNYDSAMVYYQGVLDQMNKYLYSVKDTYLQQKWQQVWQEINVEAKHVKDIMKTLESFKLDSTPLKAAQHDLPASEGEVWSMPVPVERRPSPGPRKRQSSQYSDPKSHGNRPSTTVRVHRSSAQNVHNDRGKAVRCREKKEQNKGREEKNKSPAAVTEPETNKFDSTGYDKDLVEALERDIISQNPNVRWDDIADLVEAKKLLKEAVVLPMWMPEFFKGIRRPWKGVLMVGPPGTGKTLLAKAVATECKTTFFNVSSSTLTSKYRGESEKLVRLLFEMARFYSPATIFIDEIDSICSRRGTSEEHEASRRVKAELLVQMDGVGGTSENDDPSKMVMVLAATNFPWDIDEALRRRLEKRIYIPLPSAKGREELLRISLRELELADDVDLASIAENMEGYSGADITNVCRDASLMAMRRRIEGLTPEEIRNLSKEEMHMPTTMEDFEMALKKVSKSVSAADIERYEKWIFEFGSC
Assay [4] concerns the target T1, Tubulin (Homo sapiens). Kind of assay: Induction of microtubule fragmentation in human NCI-H1975 cells at 140 nM incubated for 12 hrs by DAPI staining based laser confocal microscopic method. Type of assay: cell-based.
In another assay the test system is NCI-H1975. Nature of the assay: Antiproliferative activity against human NCI-H1975 cells incubated for 48 hrs by celltiter-Glo assay. Type of assay: functional, cell-based. The following applies: NCI-H1975, 48 h.

For `CCOc1ccc(-c2nc(/C(N)=N/O)c3[nH]c(=O)n(-c4ccccc4OC)c3n2)cc1`, the outcome on Tubulin (Homo sapiens) [1] was Active.

On to `CCOc1ccc(-c2nc(C(N)=O)c3[nH]c(=O)n(-c4ccccc4OC)c3n2)cc1`, for which the outcome on Tubulin (Homo sapiens) [2] was Active.

`CC(C)(C)OC(=O)NCCCCCNC(=O)CCCC[C@@H]1SC[C@@H]2NC(=O)N[C@@H]21`: the outcome in assay [3] was inactive.

In the case of `CCOc1ccc(-c2nc(C(N)=O)c3[nH]c(=O)n(-c4cccc(C(=O)NCCCCCNC(=O)CCCC[C@@H]5SC[C@@H]6NC(=O)N[C@@H]65)c4)c3n2)cc1`, the result in assay [3] was Active.

For the compound `CCOc1ccc(-c2nc(C(=O)NO)c3[nH]c(=O)n(-c4ccccc4OC)c3n2)cc1`, the result at Tubulin (Homo sapiens) [4] was Active.

In the case of `COc1ccccc1-n1c(=O)[nH]c2c(C(N)=O)nc(-c3ccc4c(c3)OCO4)nc21`, the IC50 in the assay with NCI-H1975 stood at 7.6 µM.

For `CCOc1ccc(-c2nc(/C(N)=N/O)c3[nH]c(=O)n(-c4cccc(C(=O)NCCCCCNC(=O)CCCC[C@@H]5SC[C@@H]6NC(=O)N[C@@H]65)c4)c3n2)cc1`, the result in assay [3] was Active.

The term IC50 denotes the midpoint of a concentration-inhibition curve. Read a low IC50 as higher potency.
